Columns and labels:
[1] = test system: Leishmania mexicana; experiment: Antileishmanial activity against Leishmania mexicana intracellular amastigotes; assay type: functional, organism-based
[2] = Cytotoxicity against mouse J774.A1 cells assessed as reduction in cell viability; assay type: toxicity, cell-based
[3] = Selectivity index, ratio of EC50 for mouse J774.A1 cells to EC50 for Leishmania mexicana intracellular amastigotes; assay type: toxicity, cell-based; conditions: read-out: Ratio EC50

| SMILES | EC50 [1] [µM] | EC50 [2] [µM] | selectivity ratio [3] |
| --- | --- | --- | --- |
| Cc1ccc(-c2cc3c(c(OCC4CCCN(C)C4)c2)OCCN(C(=O)C2CC2)C3)s1 (configuration not stated) | 10.2 |  |  |
| Cc1ccc(-c2cc(O)c3c(c2)CN(C(=O)Cc2c(C)noc2C)CCO3)s1 | 22.8 |  |  |
| Cc1ccc(-c2cc3c(c(OCC4CCCN(C)C4)c2)OCCNC3)s1 (configuration not stated) | 3.6 |  |  |
| Cc1ccc(-c2cc3c(c(OCC4CCCN(C)C4)c2)OCCN(C(=O)C2CCC2)C3)s1 (configuration not stated) | 4.8 |  |  |
| Cc1noc(C)c1CC(=O)N1CCOc2c(cc(-c3cccc(Cl)c3)cc2OCC2CCCN(C)C2)C1 (configuration not stated) | 0.9 | 3.2 | 3.6 |
| Cc1noc(C)c1CC(=O)N1CCOc2c(cc(-c3cccc(F)c3)cc2OCC2CCCN(C)C2)C1 (configuration not stated) | 2.6 | 11.5 | 4.4 |
| Cc1noc(C)c1CC(=O)N1CCOc2c(cc(-c3ccc(Cl)cc3)cc2OCC2CCCN(C)C2)C1 (configuration not stated) | 1.6 | 5.5 | 3.4 |
| Cc1noc(C)c1CC(=O)N1CCOc2c(O)cc(-c3cccc(F)c3)cc2C1 | 29.5 |  |  |
| Cc1ccc(-c2cc3c(c(OCC4CCCN(C)C4)c2)OCCN(C(=O)Cc2ccc(F)cc2)C3)s1 (configuration not stated) | 4.9 |  |  |
| Cc1ccc(-c2cc3c(c(OCC4CCCN(C)C4)c2)OCCN(C(=O)Cc2c(C)noc2C)C3)s1 (configuration not stated) | 2.3 | 4.7 | 2 |
| Cc1noc(C)c1CC(=O)N1CCOc2c(cc(-c3cccnc3)cc2OCC2CCCN(C)C2)C1 (configuration not stated) | 29 | > 50 |  |
| Cc1noc(C)c1CC(=O)N1CCOc2c(cc(-c3ccn(C)n3)cc2OCC2CCCN(C)C2)C1 (configuration not stated) | 16.5 | > 50 |  |
| Cc1noc(C)c1CC(=O)N1CCOc2c(O)cc(-c3cccc(Cl)c3)cc2C1 | 15.5 |  |  |
| Cc1cccc(CN2CCOc3c(cc(-c4ccc(C)s4)cc3OCC3CCCN(C)C3)C2)n1 (configuration not stated) | 5.3 |  |  |
| CN1CCCC(COc2cc(-c3cccc(Cl)c3)cc3c2OCCNC3)C1 (configuration not stated) | 2.2 |  |  |
| COc1ccc(C(=O)N2CCOc3c(cc(-c4ccc(C)s4)cc3OCC3CCCN(C)C3)C2)c(OC)c1 (configuration not stated) | 3.9 |  |  |
| Cc1noc(C)c1CC(=O)N1CCOc2c(cc(CC3CC3)cc2OCC2CCCN(C)C2)C1 (configuration not stated) |  | > 50 |  |
| Cc1noc(C)c1CC(=O)N1CCOc2c(cc(Br)cc2OCC2CCCN(C)C2)C1 (configuration not stated) |  | > 50 |  |
| COc1cccc(C(=O)N2CCOc3c(cc(-c4ccc(C)s4)cc3OCC3CCCN(C)C3)C2)c1 (configuration not stated) | 4.4 |  |  |
| CC1=NN(C)CC1c1cc2c(c(OCC3CCCN(C)C3)c1)OCCN(C(=O)Cc1c(C)noc1C)C2 (configuration not stated) | 37.5 | > 50 |  |
| CN1CCCC(COc2cc(-c3cccc(Cl)c3)cc3c2OCCN(C(=O)Cc2ccsc2)C3)C1 (configuration not stated) | 11.3 |  |  |
| Cc1noc(C)c1CC(=O)N1CCOc2c(cc(-c3ccccc3Cl)cc2OCC2CCCN(C)C2)C1 (configuration not stated) | 2.9 | 14.7 | 5.1 |
| COc1ccccc1C(=O)N1CCOc2c(cc(-c3ccc(C)s3)cc2OCC2CCCN(C)C2)C1 (configuration not stated) | 6.1 |  |  |
| Cc1ccc(-c2cc3c(c(OCC4CCCN(C)C4)c2)OCCN(C(=O)c2cccc(Cn4cccn4)c2)C3)s1 (configuration not stated) | 4.6 |  |  |
| CN1CCCC(COc2cc(-c3cccc(Cl)c3)cc3c2OCCN(C(=O)c2cccs2)C3)C1 (configuration not stated) | 4.6 |  |  |
| Cc1ccc(-c2cc3c(c(OCC4CCCN(C)C4)c2)OCCN(Cc2cn(C)nc2C)C3)s1 (configuration not stated) | 5.8 |  |  |
| Cc1noc(C)c1CC(=O)N1CCOc2c(cc(-c3ccnn3C)cc2OCC2CCCN(C)C2)C1 (configuration not stated) | 25 | > 50 |  |
| CCCCCCCCCCCCCCCCOP(=O)([O-])OCC[N+](C)(C)C [MILTEFOSINE] | 3.2 |  |  |

From ChEMBL document CHEMBL6083270, “Synthesis and biological evaluation of 4,7,9-trisubstituted benzoxazepines as antileishmanial agents” (Bioorg Med Chem Lett, 2024)
